# ChEMBL document CHEMBL4196057, “The chemical diversity and structure-based evolution of non-peptide CXCR4 antagonists with diverse therapeutic potential” (Eur J Med Chem, 2018)
# How the values were obtained:
# [1] = target: T1, C-X-C chemokine receptor type 4 (Homo sapiens, UniProt P61073); experiment: Inhibition of SDF-1 binding to CXCR4 (unknown origin) at 10 uM relative to control
# [2] = target: T1, C-X-C chemokine receptor type 4; experiment: Antagonist activity at CXCR4 (unknown origin); type: functional
# [3] = test system: Human immunodeficiency virus; experiment: Antiviral activity against HIV R4; type: functional, organism-based; conditions: Human immunodeficiency virus 1, R4
# [4] = test system: Human immunodeficiency virus 1; experiment: Antiviral activity against HIV1 3B; type: functional, organism-based; conditions: Human immunodeficiency virus 1, 3B
# [5] = test system: Human immunodeficiency virus 1; experiment: Antiviral activity against HIV1 3B infected in human MT4 cells assessed as inhibition of virus induced cytopathic effect after 5 days by MTT assay; type: functional, organism-based; conditions: Human immunodeficiency virus 1, 3B, MT4, 120 h
# [6] = test system: Human immunodeficiency virus 1; experiment: Antiviral activity against HIV1 assessed as inhibition of virus induced cytopathic effect; type: functional, organism-based
# [7] = target: T1, C-X-C chemokine receptor type 4; experiment: Displacement of [125I]SDF-1 from human CXCR4 expressed in HEK293 cell membranes after 1.5 hrs by Topcount method
# [8] = Cytotoxicity against human MT4 cells assessed as reduction in cell viability; type: cell-based
# [9] = target: T1, C-X-C chemokine receptor type 4; experiment: Displacement of [125I]SDF-1alpha from CXCR4 in human MT4 cells after 2 hrs by scintillation counting analysis; type: cell-based
# [10] = Bioavailability in Wistar rat at 200 mg/ml/kg administered intraduodenal by LC-MS analysis; type: ADME, organism-based; conditions: in vivo
# [11] = Plasma concentration in Wistar rat at 200 mg/ml/kg administered intraduodenal after 60 mins by LC-MS analysis; type: ADME
# [12] = test system: Human immunodeficiency virus 1; experiment: Antiviral activity against HIV1 3B infected in human MT4 cells assessed as inhibition of virus replication by MTT assay; type: functional, organism-based; conditions: Human immunodeficiency virus 1, 3B
# [13] = test system: Human immunodeficiency virus 1; experiment: Antiviral activity against HIV1 infected in human PBMC measured at 7 to 10 days post infection by ELISA; type: functional, organism-based; conditions: Human immunodeficiency virus 1, PBMC
# [14] = target: T1, C-X-C chemokine receptor type 4; experiment: Inhibition of SDF-1 binding to CXCR4 (unknown origin)
# [15] = test system: Human immunodeficiency virus 1; experiment: Antiviral activity against HIV1 3B infected in human PBMC after 1 hr by ELISA; type: functional, organism-based; conditions: Human immunodeficiency virus 1, 3B
# [16] = test system: Human immunodeficiency virus 1; experiment: Antiviral activity against HIV1 R5/X4 infected in human PBMC after 1 hr by ELISA; type: functional, organism-based; conditions: Human immunodeficiency virus 1, R5/X4, PBMC
# [17] = test system: Human immunodeficiency virus 1; experiment: Antiviral activity against HIV1 R5 infected in human PBMC after 1 hr by ELISA; type: functional, organism-based; conditions: Human immunodeficiency virus 1, R5, PBMC
# [18] = test system: Human immunodeficiency virus 1; experiment: Antiviral activity against HIV1 NL4-3 infected in human PBMC after 1 hr by ELISA; type: functional, organism-based; conditions: Human immunodeficiency virus 1, NL4-3, PBMC
# T1 sequence (P61073 whole entry): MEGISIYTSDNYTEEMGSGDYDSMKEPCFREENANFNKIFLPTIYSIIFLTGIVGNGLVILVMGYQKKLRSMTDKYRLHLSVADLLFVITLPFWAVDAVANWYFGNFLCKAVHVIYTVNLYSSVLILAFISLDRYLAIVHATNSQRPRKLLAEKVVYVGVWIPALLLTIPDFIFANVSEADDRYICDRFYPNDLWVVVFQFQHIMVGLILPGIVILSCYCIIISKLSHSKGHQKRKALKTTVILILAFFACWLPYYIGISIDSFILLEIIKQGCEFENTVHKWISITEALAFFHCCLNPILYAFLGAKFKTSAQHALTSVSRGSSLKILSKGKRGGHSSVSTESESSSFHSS
smiles,measurement,setting,value
c1ccc(CN2CCC(Nc3nccc(N4CCCCCC4)n3)C2)cc1 (centres undefined),inhibition,[1],> 50%
O=C(NCCc1ccc2c(n1)NCCC2)Nc1ccc(C(F)(F)F)cc1,IC50,[2],600 nM
same,IC50,[3],200 to 50000 nM
C1CNCCNCCCN(CCCN2CCCNCCNCCCNCC2)CCNC1,EC50,[4],248 nM
CC(C)CN(CCC[C@H](NC(=O)c1ccc(CNCc2ncc[nH]2)cc1)C(=O)N[C@@H](C)c1cccc2ccccc12)CC(C)C,EC50,[5],6.7 nM
c1ccc(CNCc2ccc(CN3CCNCCc4cccc(n4)CCNCC3)cc2)nc1,EC50,[6],1 nM
c1ccc2c(NC3CCNCC3)nc(NCc3ccc(CNCCCNC4CCCCC4)cc3)nc2c1,IC50,[7],36.2 nM
COc1ccc2[nH]c(CNCc3ccc(CN(CCNCc4ccccn4)CCNCc4ccccn4)cc3)nc2c1,IC50,[2],4 to 100 nM
C[C@H](NC(=O)[C@H](CCCNC(=N)N)NC(=O)c1ccc(CNCc2ccccn2)cc1)c1cccc2ccccc12,CC50,[8],400000 nM
same,IC50,[9],13 nM
same,bioavailability,[10],7%
same,concentration at 1 h,[11],30.6 µM
same,EC50,[12],19.3 nM
CCCN(CCC)CCCCN(C)Cc1ccc(CN(Cc2ncc[nH]2)Cc2nccn2C)cc1,EC50,[13],0.3 to 1 nM
NCCNc1nccc(N2CCCCCC2)n1,inhibition,[1],> 50%
CC(NC[C@@H]1CCN(CCc2c[nH]c3ccc(-n4cnnc4)cc23)C1)c1ccccc1 (some centres undefined),IC50,[14],7 to 20 nM
CC(C)Oc1ccc(-c2ccc3ccn(CC(=O)NCCN(C)C4CCCCC4)c3c2)cc1,IC50,[14],< 1000 nM
Cc1ccsc1CN1CCC2(CC1)CCN(Cc1ccc(C(=O)N(Cc3ncc[nH]3)Cc3ncc[nH]3)cc1)C2,IC50,[14],11 nM
CC(C)(NC[C@@H]1CCN(CCc2c[nH]c3ccc(-n4cnnc4)cc23)C1)c1ccccc1,IC50,[14],7 to 20 nM
c1cc(CN2CCCNCCNCCCNCC2)ccc1CN1CCCNCCNCCCNCC1 [PLERIXAFOR],EC50,[4],3 nM
CC1CCCCN1CCCNCc1ccc(CN2CCCNCCNCCCNCC2)cc1 (centres undefined),EC50,[5],43.6 nM
COc1ccc(NC(=O)NCCc2ccc3c(n2)NCCC3)cc1OC,IC50,[2],680 nM
same,IC50,[3],200 to 50000 nM
CCCN(CCC)Cc1ccc(NC(=O)c2ccc(CN(Cc3ncc[nH]3)Cc3ncc[nH]3)cc2)cc1,EC50,[13],2 nM
CN1CCN(c2cc(N)nc(NCc3ccc(CNCCCNC4CCCCC4)cc3)n2)CC1,IC50,[2],< 20 nM
CN(CCc1ccccc1)C[C@@H]1CCN(CCc2c[nH]c3ccc(-n4cnnc4)cc23)C1,IC50,[14],7 to 20 nM
c1ccc(CNCc2ccc(CN3CCNCCCOCCCNCC3)cc2)nc1,EC50,[6],4 nM
c1ccc(CNCc2ccc(CN3CCCNCCNCCCNCC3)cc2)nc1,EC50,[6],9 nM
CC(C)CN(CCCCNC(=O)c1ccc(CN(Cc2ncc[nH]2)Cc2ncc[nH]2)cc1)CC(C)C,EC50,[13],3 nM
c1cc(CN2CCCNCCNCCCNCC2)ccc1CNCCCN1CCOCC1,EC50,[5],134 nM
O=C(NCCc1ccc2c(n1)NCCC2)Nc1cccc2ccccc12,IC50,[2],600 nM
same,IC50,[3],200 to 50000 nM
c1ccc(CCNC[C@@H]2CCN(CCc3c[nH]c4ccc(-n5cnnc5)cc34)C2)cc1,IC50,[14],7 to 20 nM
C1CNCCNCCCNC(C2CNCCCNCCNCCCN2)CNC1 (centres undefined),EC50,[4],144 nM
Cn1ccc2c(NC(=O)NCCc3ccc4c(n3)NCCC4)cccc21,IC50,[2],400 nM
same,IC50,[3],200 to 50000 nM
CC(C)c1ccccc1NC(=O)NCCc1ccc2c(n1)NCCC2,IC50,[2],800 nM
same,IC50,[3],200 to 50000 nM
c1ccc(CNCCN(CCNCc2ccccn2)Cc2ccc(CNCc3nc4ccccc4[nH]3)cc2)nc1,IC50,[2],4 to 100 nM
CC1CCCCN1CCCNCc1ccc(CNCCCN2CCCCC2C)cc1 (centres undefined),EC50,[5],19.3 nM
Clc1cc(CN2CCCNCCNCCCNCC2)cc(Cl)n1,IC50,[15],1200 to 26500 nM
same,IC50,[16],1200 to 26500 nM
same,IC50,[17],1200 to 26500 nM
same,IC50,[18],1200 to 26500 nM
FC(F)(F)c1ccc(NC(=S)NCCc2ccc3c(n2)NCCC3)cc1,IC50,[2],200 nM
same,IC50,[3],200 to 50000 nM
CCCN(CCC)CCCCNCc1ccc(CN(Cc2ncc[nH]2)Cc2ncc[nH]2)cc1,EC50,[13],2 nM
Nc1cc(N2CCNCC2)nc(NCc2ccc(CNCCCNC3CCCCC3)cc2)n1,IC50,[2],< 20 nM
CCN(CC)CCCC(C)Nc1cc(/C=C/c2ccc([N+](=O)[O-])cc2)nc2cc(OC)ccc12 (centres undefined),IC50,[7],2160 nM
